In patent US20050260264A1, “Dosage form for delivery of multiple drug forms” (priority 2004, published 2005):
Where a name gives a salt, the structure may show the parent alone. Read-outs that look alike come from different tables or passages of the source.

Key:
[1] = solubility of the pharmaceutical agent in water; type: physicochemical
Method: As defined herein, the solubility of a pharmaceutical agent is determined by adding the pharmaceutical agent to stirred or agitated de-ionized water maintained in a constant temperature bath at a temperature of 37° C. until no more pharmaceutical agent dissolves. The resulting solution saturated with the pharmaceutical agent is then filtered, typically under pressure through a 0.8-micron Millipore filter, and the concentration of the pharmaceutical agent in the solution is measured by any appropriate analytical method including gravimetric, ultraviolet spectrophometry, chromatography, and the like. The solubility of the pharmaceutical agent is measured at saturated concentration.

[2] = osmotic pressure of the drug; type: physicochemical

For CCC(=O)O[C@](Cc1ccccc1)(c1ccccc1)[C@H](C)CN(C)C [propoxyphene hydrochloride], which “solubility in water (in words)” value ([1]; hydrochloride) is on record?
Its value is “freely soluble”.

For CCC(=O)O[C@](Cc1ccccc1)(c1ccccc1)[C@H](C)CN(C)C [propoxyphene base], which “solubility in water (in words)” value [1] is on record?
The value was “only slightly soluble”.

For CN1CCN(CCCN2c3ccccc3Sc3ccc(Cl)cc32)CC1 [prochlorperazine edisilate], which “solubility in water (aqueous solubility)” value [1] is on record?
The value was “about 500 mg per milliliter”.

Which “solubility in water (aqueous solubility)” value [1] does the source give for CN1CCN(CCCN2c3ccccc3Sc3ccc(Cl)cc32)CC1 [prochlorperazine base] here?
The value was 0.1 to 1 mg per milliliter.

For CNC(=C[N+](=O)[O-])NCCSCc1ccc(CN(C)C)o1.Cl [Ranitidine HCl, ranitidine hydrochloride], which “osmotic pressure of the drug” value [2] is on record?
Its value is 95 atmospheres.
